Reference: patent US11046647B2, “Activators of the unfolded protein response” (The Board of Trustees of the University of Illinois, priority 2018, dated 2021)

Legend:
[1] = tested on: panel of cancer cell lines; test: Alamar blue 24-hour IC50 against a panel of cancer cell lines; assay type: cell-based; details: Homo sapiens, average
Method: FIG. 36. Discovery of SERK-F6 (also known as, C(−)-105, (−)-105, (R)-105, (−)-1, or (R)-1), a compound that kills ERα-positive cancer cells, a, Chemical structures of BHPI and racemic compound 1 (i.e. (±)-1), and their cytotoxic activity on T47D breast cancer cells after 24-hour incubations with concentrations as indicated in nM. Cells were stained with annexin V-FITC and PI dyes prior to analysis via flow cytometry. […] Cells were incubated with SERK-F6 or positive control, Raptinal, for 24 hours and then stained with annexin V-FITC and PI dyes and analyzed via flow cytometry. […] Cell viability was measured by Alamar blue fluorescence and set relative to a vehicle control and a quantitative dead control treated with Raptinal. […] Cell number was determined by MTS.
FIG. 40. […] Concentration was determined via LC/MS/MS analysis. […] Concentrations were determined via LC/MS/MS analysis. […]
Cell lines: ERα positive breast cancer: T47D, MCF-7 TYS (T47D Y537S) TDG (T47D D538G), BT-474; ERα negative MDA-MB-231 breast cancer cells; 6,000 cells/well were plated (96 well plate) in 100 μl of medium. […] After 2-4 hours fluorescence in the wells was read (λex: 555 nm, λem: 585 nm, Spectra Max M3 Plate reader). % relative death was determined by setting the reading for 10,000 nM raptinal-treated cells to 100% dead cells and the reading for vehicle-treated cells to 0% dead cells. […]

[2] = tested on: TYD-Luc cells (T47DERαD538G-luciferase human breast cancer cells) tumors; test: Orthotopic TDG-Luc mouse xenograft, bioluminescent imaging; assay type: in vivo
Source text: FIG. 41. SERK-F6 eradicates mutant ERα primary and metastatic breast cancer. a-c, TYS-luc. orthotopic tumors were established in NSG ovariectomized mice (no E2 pellet, 60 days to establish) and dosed daily as indicated (n=5-6). b, representative examples of bioluminescence images of SERK-F6 treated mice (7 days). d,e, TDG-luc. orthotopic tumors were established in NSG ovariectomized mice (no E2 pellet, 120 days to establish) and dosed daily as indicated (n=4-5). e, Bioluminescence image of SERK-F6 treated mouse with TDG-luc. tumor burden after 7 days. f, MYS-luc. orthotopic tumors were established in NSG ovariectomized mice (no E2 pellet, 45 days to establish) and dosed daily as indicated (n=4-5). g, MDG-luc. orthotopic tumors were established in NSG ovariectomized mice (no E2 pellet, 45 days to establish) and dosed daily as indicated (n=4-5). h, Metastatic model with MDG-luc. cells injected into the tail-vein of NSG ovariectomized mice (no E2 pellet, 1.5 months to establish) and mice were dosed daily as indicated (n=4-5).
FIG. 4A illustrates how IC50's for cell death were determined. 4B tests the ability BHPI, (−)-105, and 01-15 to kill. […] Large orthotopic breast tumors of TYD-Luc cells (T47DERαD538G-luciferase human breast cancer cells) were allowed to form for 4 months in immune suppressed NSG mice. […]

[3] = tested on: CaOV-3 ovarian cancer cells; test: Automated Trypan Blue exclusion cell death assay, Caov-3; assay type: cell-based, human; details: 24 hours
Method: FIG. 33. 105, but not BHPI, kills therapy-resistant ovarian CaOV-3 ovarian cancer cells. (±)-105; Cell death assay: Automated Trypan Blue exclusion. (24 hours post (±)-105)
TRYPAN BLUE: For decades, viable cells have been measured by their ability to exclude the dye Trypan Blue. […] Dead cells, which have lost membrane integrity, take up the dye and are blue. Thus, the percentage of dead cells is the percentage of cells that are Trypan Blue positive out of the total cell population. Quantitative assessment of Trypan Blue uptake uses a cell counter from Fisher. Since the assay is instrument based, there is no observer bias in determining the percentage of Trypan Blue positive cells.
TRYPAN BLUE ASSAYS: Assays are performed on cells in 6 well plates: 300,000 cells are plated in each well of a 6-well plate in 3 ml of medium. After 24 hours, the DMSO vehicle or the indicated compound is added (in 1000th of the vol.) The cells incubated for an additional 24 hours, and then harvested in 0.25 ml of trypsin, followed after harvest by 0.75 ml of medium. The cells are spun down and resuspended in 100-200 μl of medium left that is over the cell pellet (resuspend cells by pipetting up and down a few times). Add 10 μl to 10 μl of trypan blue. Then 10 μl is inserted into the counting slide. […]

| Compound | IC50 [1] [nM] | efficacy on oral administration ([2]; 40 mg/kg oral gavage, 3 days) | effect on D538G mutant tumors (TDG cell line) ([2]; daily dosing) | killing of Caov-3 cells [3] |
| --- | --- | --- | --- | --- |
| O=C1Nc2c(C(F)(F)F)cccc2C1(c1ccc(O)cc1)c1ccc(OC(F)(F)F)cc1 (single isomer, unassigned; (-)) [(−)-105, 3-(4-hydroxyphenyl)-3-(4-(trifluoromethoxy)phenyl)-7-(trifluoromethyl)indolin-2-one] | 42 | effective when administered orally | destruction of D538G mutant tumors |  |
| O=C1Nc2c(C(F)(F)F)cccc2C1(c1ccc(O)cc1)c1ccc(OC(F)(F)F)cc1 (racemic) [(±)-105, 3-(4-hydroxyphenyl)-3-(4-(trifluoromethoxy)phenyl)-7-(trifluoromethyl)indolin-2-one] |  |  |  | kills |
